For one data set, the target named is CYP3A4 (Homo sapiens (Human), UniProt P08684). Nature of the data set: Inhibition test on cytochrome P450 subtype CYP3A4. Type of data set: in vitro ADME. Conditions: at 10 μM, compared with the control compound I. Here is the method: The inhibitory potential of compounds on cytochrome P450 (CYP450) subtype CYP3A4 (two substrates of midazolam and testosterone) was detected. First, the compound to be tested was prepared into a 10 mM stock solution in DMSO solvent, and the CYP3A4 inhibitor ketoconazole was prepared as 10 mM, 2.5 mM and 2.5 mM stock solutions in DMSO solvent. The test compound and ketoconazole were diluted to 400-fold final concentration (compound: 10 μM, ketoconazole: 2.5 μM) with acetonitrile.
NADPH cofactor (10 mL of potassium phosphate buffer added with 66.7 mg NADPH) at 4-fold final concentration and substrates were prepared with potassium phosphate buffer (0.1 M, pH=7.4), with CYP3A4 substrate midazolam at a final concentration of […] and CYP3A4 substrate testosterone at a final concentration of 20 μM.
A human liver microsome solution at a concentration of 0.2 mg/mL was prepared with potassium phosphate buffer on ice. A solution of the compound to be tested and a control inhibitor (control compound) solution at 2-fold final concentration were prepared with the human liver microsome solution on ice. The test wells were added with […] of the test compound solution and the control inhibitor solution respectively, and then added with […] of the substrate for duplication. A 96-well assay plate and a NADPH solution were incubated at 37° C. for 5 min, and 15 μL of pre-heated 8 mM NADPH solution was added to the assay plate to initiate the reaction. A CYP3A4 assay plate was pre-incubated at 37° C. for 5 min. The plate was added with 120 μL of acetonitrile to terminate the reaction, and after quenching, the plate was shaken on a shaker (IKA, MTS 2/4) for 10 min (600 rpm/min), and then centrifuged for 15 min. After centrifugation, the supernatant was collected, and added with purified water in a ratio of 1:1 to perform LC-MS/MS detection. A ratio of a peak area of compound to a peak area of internal standard was obtained, and the peak area ratio of the compound was compared with the peak area ratio of the control inhibitor to calculate the inhibition rate.

In the next data set the target is KRAS G12C-SOS1 (Homo sapiens (Human), UniProt Q07889). Nature of the data set: Inhibition test of compounds on KRAS G12C::SOS1 binding. Conditions: GST-KRAS G12C, His-SOS1. The protocol:
The compound to be tested was prepared into a 10 mM stock solution with DMSO, and the compound was serially diluted using 1× test buffer. 0.1 μL of the compound solution with different concentrations was transferred to a 384-well plate. […] 5 μL of His-SOS1 was added to the 384-well plate, centrifuged at 1000 rpm for 1 min, and incubated at room temperature for 15 min.
After incubation, 10 μL of a mixed solution of anti-6his-Tb monoclonal antibody (Cisbio, Cat. No. 61HI2TLA) and anti-GST-XL665 monoclonal antibody (Cisbio, Cat. No. 61GSTXLA) was added to the test well, centrifuged at 1000 rpm for 1 min, and incubated at room temperature for 1 h.
After incubation, the fluorescence signal ratios at 665 nm and 615 nm were read on a multifunctional microplate reader (Perkin Elmer, Envision 2104), and the IC50 values were calculated using Graphpad 5 software.

Data set [1] deals with ERK phosphorylation level in DLD-1 cells. Nature of the data set: Inhibition of ERK phosphorylation level in DLD-1 cells (intracellular western blot). Particulars: Homo sapiens. It counts as cell-based. The protocol:
Intracellular western blot quantitative analysis was used to detect the inhibitory level of compounds on ERK phosphorylation in DLD-1 cells.
DLD-1 cells (ATCC, CCL-221) were seeded in a T75 culture flask at 2.5×10^6 cells/flask and cultured in a RPMI 1640 medium containing 10% FBS for 2 days. On day 3, the cells were seeded on a 384-well plate, and cultured overnight at 37° C., 5% CO2. After overnight culture, the plate was added with serially diluted compounds (the final content of DMSO was 0.5%), the negative group was added with DMSO, and incubated in a 37° C., 5% CO2 incubator.
The cells were fixed, washed once with PBS, treated to disrupt membranes, and blocked at room temperature for 1 h. The blocking solution was removed. The plate was added with primary antibody (CST, Cat. No. #4370S), and incubated overnight at 4° C. The plate was washed 3 times with PBST (PBS solution added with 0.05% Tween-20) and soaked for 2 min each time. The plate was added with secondary antibody (LI-COR, Cat. No. 926-32211) and incubated at room temperature in the dark. The plate was washed 3 times with PBST and soaked for 2 min each time. The plate was centrifuged at 1000 rpm for 1 min, scanned on a two-color infrared laser imaging system (Odyssey® CLX) to read the signal.
Relative signal=800-channel signal values/700-channel signal values.
Relative expression level of ERK phosphorylation=(test compound−control compound I)/(DMSO group−control compound I)
(§1) IC50 values were calculated using Graphpad 5 software.

A further data set has as its system H358 cells. Kind of data set: Inhibition of 3D cell proliferation (3D CellTiter-Glo). It counts as cell-based. Conditions: Homo sapiens, NCI-H358, 168 h, read-out: IC50 (nM), inhibition of 3D proliferation of H358 cells, 7 days. The protocol:
H358 cells were seeded in a T75 culture flask and cultured in a RPMI 1640 medium containing 10% FBS for 2 days for subsequent experiments in which the cells would be cultured or seeded on a 384-well plate.
On day 1, the cells were seeded on the 384-well plate, with 40 μL of medium added per well and serially diluted compounds or DMSO added per well, and an additional well without seeded cells but with medium was set up as a blank control. After culture at 37° C., 5% CO2 for 7 days, the plate was added with 3D CellTiter-Glo reagent (Promega, Cat. No. G9683) on day 8, shaken at 320 rpm for 20 min, and left at room temperature for 2 h. Luminescence signals were read on a multifunctional microplate reader. Cell viability inhibition rate was calculated as:
Cell viability inhibition rate=(DMSO group−test compound)/(DMSO group−blank control group)×100%
as §1

A short description of data set [2]: Pharmacokinetic test in mice. It counts as in vivo. Conditions: mouse, plasma; male ICR mice, oral gavage, 10 mg/kg. The protocol:
Male ICR mice (20 to 25 g) were used and fasted overnight. Three mice were taken and orally administered by gavage (10 mg/kg). Blood was collected before the administration, and at 15 min, 30 min, 1 h, 2 h, 4 h, 8 h and 24 h after the administration. 6,800 g of the blood samples were centrifuged at 2 to 8° C. for 6 min, and plasma was collected and stored at −80° C. The plasma at each time point was taken and added with an acetonitrile solution containing internal standard in 3 to 5 times the amount, vortexed and mixed for 1 min, and centrifuged at 13,000 rpm/min at 4° C. for 10 min. The supernatant was collected, added with water in 3 times the amount, and mixed. An appropriate amount of the mixture was taken for LC-MS/MS analysis. The main pharmacokinetic parameters were analyzed using WinNonlin 7.0 software with non-compartmental model.

Data set [3] deals with Mia Paca-2 pancreatic cancer. Nature of the data set: Mia Paca-2 pancreatic cancer in vivo efficacy test. On the set-up: species or system mice. Conditions: Mia Paca-2, 0.125 mg/kg BID. The protocol: After one week of adaptive feeding of mice, Mia Paca-2 cells in a log phase were resuspended in serum-free DMEM, and then mixed with Matrigel in a ratio of 1:1.1×10^7 Mia Paca-2 cells were inoculated subcutaneously at the right flank at 100 μL per mouse, and tumor growth was observed regularly. When the tumor grew to an average volume of 150 to 200 mm^3, the mice were randomly divided into a model group and an administration group (single drug, in combination with trametinib) based on the tumor size and body weight. The tumor size and body weight were measured and recorded before and during the administration. After the treatment, the tumor size in the model group was compared with that in the administration group to determine the efficacy.

13 compounds from patent US20240166645A1, “PYRIDOPYRIMIDINONE DERIVATIVE, PREPARATION METHOD THEREFOR, AND USE THEREOF” (Wuhan Humanwell Innovative Drug Research and Development …, priority 2021, published 2024) can be followed below.

KRAS G12C-SOS1, sequence (Q07889 whole entry, stated change not applied): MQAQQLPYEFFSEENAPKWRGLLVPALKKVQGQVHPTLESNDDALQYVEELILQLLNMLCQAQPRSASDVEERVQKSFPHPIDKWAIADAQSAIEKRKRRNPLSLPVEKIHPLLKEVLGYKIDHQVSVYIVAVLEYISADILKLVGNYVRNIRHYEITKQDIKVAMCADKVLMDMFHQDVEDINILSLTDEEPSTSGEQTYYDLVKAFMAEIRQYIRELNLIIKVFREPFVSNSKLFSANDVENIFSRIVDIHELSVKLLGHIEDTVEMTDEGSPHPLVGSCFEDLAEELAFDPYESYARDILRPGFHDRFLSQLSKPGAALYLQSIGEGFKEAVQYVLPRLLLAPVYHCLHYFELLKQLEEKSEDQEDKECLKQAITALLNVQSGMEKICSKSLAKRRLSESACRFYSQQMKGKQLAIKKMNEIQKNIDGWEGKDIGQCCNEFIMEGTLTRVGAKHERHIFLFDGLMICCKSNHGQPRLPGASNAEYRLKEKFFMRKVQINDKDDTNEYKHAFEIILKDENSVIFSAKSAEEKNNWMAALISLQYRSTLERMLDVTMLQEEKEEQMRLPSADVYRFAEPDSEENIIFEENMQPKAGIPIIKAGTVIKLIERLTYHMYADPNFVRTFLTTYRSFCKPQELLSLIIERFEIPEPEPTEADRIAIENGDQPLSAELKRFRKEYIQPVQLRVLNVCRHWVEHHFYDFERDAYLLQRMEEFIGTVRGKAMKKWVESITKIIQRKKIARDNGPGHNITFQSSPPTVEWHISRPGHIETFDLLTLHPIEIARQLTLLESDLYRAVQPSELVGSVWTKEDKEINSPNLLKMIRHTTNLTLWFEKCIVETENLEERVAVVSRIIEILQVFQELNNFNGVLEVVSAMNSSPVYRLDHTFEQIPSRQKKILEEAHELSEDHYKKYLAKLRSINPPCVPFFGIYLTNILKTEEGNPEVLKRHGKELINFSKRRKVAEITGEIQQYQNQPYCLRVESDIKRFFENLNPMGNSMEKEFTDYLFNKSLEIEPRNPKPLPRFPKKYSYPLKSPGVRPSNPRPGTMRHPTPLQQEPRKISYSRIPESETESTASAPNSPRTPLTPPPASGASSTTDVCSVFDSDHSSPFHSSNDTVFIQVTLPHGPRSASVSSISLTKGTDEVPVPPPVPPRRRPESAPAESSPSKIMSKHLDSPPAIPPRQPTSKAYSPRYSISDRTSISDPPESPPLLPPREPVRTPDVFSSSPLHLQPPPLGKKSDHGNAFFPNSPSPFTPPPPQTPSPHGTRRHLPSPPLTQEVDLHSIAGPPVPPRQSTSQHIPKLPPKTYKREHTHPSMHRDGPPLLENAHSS
CYP3A4, sequence (P08684 whole entry): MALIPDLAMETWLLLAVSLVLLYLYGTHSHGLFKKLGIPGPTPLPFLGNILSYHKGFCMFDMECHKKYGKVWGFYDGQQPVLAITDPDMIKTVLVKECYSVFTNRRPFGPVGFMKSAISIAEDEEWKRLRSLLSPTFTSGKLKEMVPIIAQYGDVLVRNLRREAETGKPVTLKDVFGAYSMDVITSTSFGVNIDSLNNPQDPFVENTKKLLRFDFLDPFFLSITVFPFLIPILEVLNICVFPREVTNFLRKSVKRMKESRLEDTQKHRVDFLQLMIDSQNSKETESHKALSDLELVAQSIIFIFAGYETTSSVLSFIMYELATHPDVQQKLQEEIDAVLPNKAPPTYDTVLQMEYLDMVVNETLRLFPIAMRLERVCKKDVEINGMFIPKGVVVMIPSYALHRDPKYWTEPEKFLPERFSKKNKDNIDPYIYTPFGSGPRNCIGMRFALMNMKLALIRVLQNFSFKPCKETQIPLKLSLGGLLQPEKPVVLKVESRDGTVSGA

For `Cc1nc(N[C@H](C)c2cccc(S(F)(F)(F)(F)F)c2)c2cn(C3(CF)CC3)c(=O)cc2n1` [Compound I-3, (R)-6-(1-(fluoromethyl)cyclopropyl)-2-methyl-4-((1-(3-(pentafluorosulfanyl)phenyl)ethyl)amino)pyrido[4,3-d]pyrimidin-7(6H)-one], at CYP3A4, the “inhibitory effect on CYP3A4 enzymes (in words)” value was “more significant inhibitory effect”.
On to `Cc1nc(N[C@H](C)c2cccc(OC(F)F)c2F)c2cn(C3(C(F)F)CC3)c(=O)cc2n1` [Compound I-12, (R)-4-((1-(3-(difluoromethoxy)-2-fluorophenyl)ethyl)amino)-6-(1-(difluoromethyl)cyclopropyl)-2-methylpyrido[4,3-d]pyrimidin-7(6H)-one], for which the IC50 on KRAS G12C-SOS1 came to 22.2 nM; in data set [1], 196 nM.
Take `COCC1(n2cc3c(N[C@H](C)c4cccc(S(F)(F)(F)(F)F)c4)nc(C)nc3cc2=O)CC1` [Compound I-13, (R)-6-(1-(methoxymethyl)cyclopropyl)-2-methyl-4-((1-(3-(pentafluorosulfanyl)phenyl)ethyl)amino)pyrido[4,3-d]pyrimidin-7(6H)-one]: the IC50 came out at 109 nM in data set [1] and 15.7 nM in the data set with H358 cells.
For the compound `Cc1nc(N[C@H](C)c2cccc(S(F)(F)(F)(F)F)c2)c2cn([C@H]3C[C@](C)(O)C3)c(=O)cc2n1` [Compound I-15, 6-((1r,3R)-3-hydroxy-3-methylcyclobutyl)-2-methyl-4-(((R)-1-(3-(pentafluorosulfanyl)phenyl)ethyl)amino)pyrido[4,3-d]pyrimidin-7(6H)-one], the IC50 at KRAS G12C-SOS1 was 14.4 nM.
On the same count and under the same terms, for `Cc1nc(N[C@H](C)c2cccc(S(F)(F)(F)(F)F)c2)c2cn(C3CC(F)(F)C3)c(=O)cc2n1` [Compound I-16, (R)-6-(3,3-difluorocyclobutyl)-2-methyl-4-((1-(3-(pentafluorosulfanyl)phenyl)ethyl)amino)pyrido[4,3-d]pyrimidin-7(6H)-one] the value was 16.1 nM.
Consider `CC(=O)N1CCC(C)(n2cc3c(N[C@H](C)c4cccc(S(F)(F)(F)(F)F)c4)nc(C)nc3cc2=O)CC1` [Compound I-17, (R)-6-(1-acetyl-4-methylpiperidin-4-yl)-2-methyl-4-((1-(3-(pentafluorosulfanyl)phenyl)ethyl)amino)pyrido[4,3-d]pyrimidin-7(6H)-one], for which the IC50 in data set [1] is 119 nM; in the data set on H358 cells, 12.1 nM.
For `CC(=O)N1CCC(C)(n2cc3c(N[C@H](C)c4cccc(S(F)(F)(F)(F)F)c4)nc(C)nc3cc2=O)C1` (stereo partly drawn) [Compound I-18, 6-(1-acetyl-3-methylpyrrolidin-3-yl)-2-methyl-4-(((R)-1-(3-(pentafluorosulfanyl)phenyl)ethyl)amino)pyrido[4,3-d]pyrimidin-7(6H)-one] the same measures were 115 nM and 9.2 nM.
As for `Cc1nc(N[C@H](C)c2cccc(S(F)(F)(F)(F)F)c2)c2cn([C@H]3C[C@H](F)C3)c(=O)cc2n1` [Compound I-19, 6-((1R,3R)-3-fluorocyclobutyl)-2-methyl-4-(((R)-1-(3-(pentafluorosulfanyl)phenyl)ethyl)amino)pyrido[4,3-d]pyrimidin-7(6H)-one], the values for the IC50 (on KRAS G12C-SOS1; in data set [1]; with H358 cells) were 9.5 nM, 131 nM and 137 nM, respectively.
For the compound `Cc1nc(N[C@H](C)c2cccc(S(F)(F)(F)(F)F)c2)c2cn(C3(C)CCOC3)c(=O)cc2n1` (stereo partly drawn) [Compound I-20, 2-methyl-6-(3-methyltetrahydrofuran-3-yl)-4-(((R)-1-(3-(pentafluorosulfanyl)phenyl)ethyl)amino)pyrido[4,3-d]pyrimidin-7(6H)-one], the IC50 was 92 nM in data set [1] and 31 nM with H358 cells.
`Cc1nc(N[C@H](C)c2cccc(S(F)(F)(F)(F)F)c2)c2cn(C3(C)CCOCC3)c(=O)cc2n1` [Compound I-21, (R)-2-methyl-6-(4-methyltetrahydro-2H-pyran-4-yl)-4-((1-(3-(pentafluorosulfanyl)phenyl)ethyl)amino)pyrido[4,3-d]pyrimidin-7(6H)-one]: the IC50 at KRAS G12C-SOS1 worked out at 6.9 nM; in data set [1], 141 nM; with H358 cells, 85.1 nM.
As to `Cc1nc(N[C@H](C)c2cccc(S(F)(F)(F)(F)F)c2)c2cn(C3(C)CC3)c(=O)cc2n1` [Compound I-22, (R)-2-methyl-6-(1-methylcyclopropyl)-4-((1-(3-(pentafluorosulfanyl)phenyl)ethyl)amino)pyrido[4,3-d]pyrimidin-7(6H)-one], the IC50 came to 21.7 nM on KRAS G12C-SOS1 and 10.7 nM in the data set on H358 cells.
Regarding `Cc1nc(N[C@H](C)c2cccc(C(F)F)c2F)c2cn(C3(C(F)F)CC3)c(=O)cc2n1` [Control compound II, reference compound], in data set [2], the AUC(0-t) was 1000 ng·h/mL, the Cmax is 669 ng/mL, the Tmax was found to be 30 min and the half-life is 57.6 min.
For the compound `CC(=O)Nc1cccc(-n2c(=O)n(C3CC3)c(=O)c3c(Nc4ccc(I)cc4F)n(C)c(=O)c(C)c32)c1` [Trametinib, reference compound], the “Tumor weight inhibition rate (relative to the vehicle group)” value in data set [3] is 80%.
